Measurements taken from patent US8471027B2, “Adamantyl compounds” (Hoffmann-La Roche Inc., priority 2011, dated 2013).

How the values were obtained:
[1] = target: JNK1 (Homo sapiens, UniProt P45983); test: In vitro JNK1 Assay (TR-FRET, phosphorylation of GST-c-Jun); assay type: biochemical; settings: 0.2 nM JNK1, 26.7 nM GST-c-Jun, 2 μM ATP
Procedure: Phosphorylation of GST-c-Jun protein (amino acid residues 1-79) was measured as JNK1 activity. […] The reaction buffer contained 50 mM HEPES, pH 7.0, 10 mM MgCl2, 1 mM DTT, 0.1 mM Na3 VO4 and 0.2 mg/mL BSA. After 30 min. incubation at room temperature, the reaction was terminated by adding buffer containing 8 mM EDTA and a polyclonal anti-phospho-c-Jun antibody (Cell Signaling #9261L), followed by an additional incubation of 30 min. at room temperature. […] Time-resolved Fluorescence Resonance Energy Transfer (TR-FRET) signals were measured 1 hr. later on the EnVision reader (Perkin Elmer). Compound potency was assessed at 10 serially diluted concentrations. Percentage of inhibition at each concentration was determined to generate an IC50 value for each compound.

[2] = system: phospho(Ser63)-c-jun in HK-2 cells; test: Cell-based assay for JNK inhibitors: in-cell ELISA of TNFα-stimulated phospho(Ser63)-c-jun in HK-2 cells; settings: Homo sapiens, 10 ng/mL TNFα, 60 min preincubation with compound
Procedure: Cell-Based Assay for JNK Inhibitors
The cell-based assay employed the in-cell ELISA method to determine the ability of compounds to prevent the generation of phospho(Ser63)-c-jun in HK-2 cells (human proximal tubule cells) in response to stimulation with tumor necrosis factor α (TNFα). In brief, for quantification of phospho(Ser63)-c-jun, the cells (in 96-well format) were fixed and permeablized then incubated sequentially with a rabbit anti-phospho-c-jun First Antibody specific for the presence of the phospho-Ser63 epitope and a donkey anti-rabbit IgG Second Antibody linked to horseradish peroxidase (HRP) for colorimetric quantitation of binding. For determination of non-specific binding of the First Antibody, Blank wells were preincubated with a mouse anti-phospho(Ser63)-c-jun Blocking Antibody that prevented specific binding of the First Antibody to the phospho-Ser63 epitope, but which was not recognized by the donkey anti-rabbit IgG Second Antibody. […] Blank wells received no TNFα stimulation or compound. Additional Control wells received TNFα stimulation, but no compound. The signal obtained in this case was considered the value for 0% inhibition (Control value).
Stock cultures of HK-2 cells (ATCC, Manassas, Va.) were grown under a 5% CO2/[…] atmosphere at 37 degrees C. in Keratinocyte-SFM medium (KSFM, Invitrogen, Grand Island, N.Y.) containing 5 μg/L epidermal growth factor and 5 mg/L bovine pituitary extract (both supplied with the medium), additionally supplemented with 10% (v/v) fetal calf serum (FCS; Invitrogen, Grand Island, N.Y.) and 1% (v/v) antibiotic-antimycotic (ABAM: Sigma, St. Louis, Mo.). For assays, cells were seeded in collagen coated 96-well polystyrene plates (BD Biosciences, Franklin Lakes, N.J.) at a density of 40,000 cells/well and cultured for 24 h in the same medium (100 μL/well) followed by a further 16-24 h in 100 μL of similar medium, but without FCS. […] Cells were incubated for a further 30 minutes and then the medium was aspirated and the wells washed with 100 μL/well PBS followed by the addition of 100 μL 3.7% (v/v) Formaldehyde (Fisher Scientific, Fair Lawn, N.J.) in PBS. Plates were then allowed to stand at room temperature for 20 minutes before being washed with 200 μL/well of PBS. (Further steps were performed immediately or the plates were stored at 4 degrees C. and the assay completed the next day.) To each well was added 100 μL 1% (v/v) TritonX-100 (Sigma, St. Louis, Mo.) in PBS followed by 20 minutes standing at room temperature, washing with 200 μL/well PBS, the addition of 100 μL/well of Quenching buffer (1% (v/v) hydrogen peroxide (Sigma, St. Louis, Mo.) and 0.1% (w/v) sodium azide (Fisher Scientific, Fair Lawn, N.J.)) in PBS and a further 20 minutes at room temperature. Plates were then washed twice with 200 μL/well of 0.1% (v/v) Tween-20 (Teknova, Hollister, Calif.) in PBS before addition of 200 μL/well of 2% BSA/0.10% Tween-20 in PBS and a further 1 hour at room temperature. At this time, buffer was removed from Blank wells and replaced with 90 μL/well of mouse anti-phospho-c-jun-Ser63 (BD Bioscience, 558036) diluted 1:4000 in PBS containing 1% BSA/0.1% Tween-20 (Antibody Dilution Buffer). All other wells are replaced with 90 μL/well of rabbit anti-phospho-c-jun-Ser63 (Cell Signaling, 9261) diluted 1:250 in Antibody Dilution Buffer. After a further one hour, rabbit anti-phospho-c-jun-Ser63 is added directly to the solution in the Blank wells resulting in 1:250 dilution of this antibody. Plates were then placed on a slowly rotating platform at 4 degrees C. overnight. Wells were then washed thrice with 200 μL/well PBS/0.1% Tween-20. After addition of the third wash, the plates were placed on a slowly rotating platform for 15 minutes at room temperature. […]

Sequence of JNK1 (P45983 whole entry, species assumed, the tested form may be a part): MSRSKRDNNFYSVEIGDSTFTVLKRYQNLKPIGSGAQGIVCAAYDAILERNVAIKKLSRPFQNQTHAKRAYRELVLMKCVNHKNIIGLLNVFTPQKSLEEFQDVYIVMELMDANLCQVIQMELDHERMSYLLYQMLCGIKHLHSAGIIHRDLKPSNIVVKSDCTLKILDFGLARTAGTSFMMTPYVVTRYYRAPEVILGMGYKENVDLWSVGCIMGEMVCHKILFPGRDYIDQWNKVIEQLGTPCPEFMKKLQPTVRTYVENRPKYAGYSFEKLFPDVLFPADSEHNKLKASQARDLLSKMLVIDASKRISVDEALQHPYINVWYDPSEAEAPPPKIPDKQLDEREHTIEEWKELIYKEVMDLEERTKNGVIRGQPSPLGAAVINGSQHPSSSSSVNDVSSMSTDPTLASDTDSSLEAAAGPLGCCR

Compound	IC50 [1] [nM]	EC50 [2] [µM]
COC(=O)c1c(Cc2ccc(C(=O)N[C@H]3[C@@H]4C[C@@H]5C[C@H]3C[C@@](O)(C5)C4)cc2)c(=O)c2cccnc2n1-c1ccccc1 [Compound I-2, rel-3-[4-((1S,2R,3R,5S,7S)-5-Hydroxy-adamantan-2-ylcarbamoyl)-benzyl]-4-oxo-1-phenyl-1,4-dihydro-[1,8]naphthyridine-2-carboxylic acid methyl ester]	47	8.5
COC(=O)c1c(Cc2ccc(C(=O)N[C@@H]3[C@@H]4C[C@@H]5C[C@H]3C[C@@](O)(C5)C4)cc2)c(=O)c2ccc(Cl)cc2n1-c1ccccc1 [Compound I-3, rel-7-Chloro-3-[4-((1S,2S,3R,5S,7S)-5-hydroxy-adamantan-2-ylcarbamoyl)-benzyl]-4-oxo-1-phenyl-1,4-dihydro-quinoline-2-carboxylic acid methyl ester]	12	5.8
COC(=O)c1c(Cc2ccc(C(=O)N[C@H]3[C@@H]4C[C@@H]5C[C@H]3C[C@@](O)(C5)C4)cc2)c(=O)c2ccc(Cl)cc2n1-c1ccccc1 [Compound I-4, rel-7-Chloro-3-[4-((1S,2R,3R,5S,7S)-5-hydroxy-adamantan-2-ylcarbamoyl)-benzyl]-4-oxo-1-phenyl-1,4-dihydro-quinoline-2-carboxylic acid methyl ester]	51	6.3
O=C(N[C@@H]1[C@@H]2C[C@@H]3C[C@H]1C[C@@](O)(C3)C2)c1ccc(Cc2cn(-c3ccccn3)c3cc(Cl)ccc3c2=O)cc1 [Compound I-5, rel-4-(7-Chloro-4-oxo-1-pyridin-2-yl-1,4-dihydro-quinolin-3-ylmethyl)-N-((1S,2S,3R,5S,7S)-5-hydroxy-adamantan-2-yl)-benzamide]	330	–
COC(=O)c1c(Cc2ccc(C(=O)N[C@@H]3[C@@H]4C[C@@H]5C[C@H]3C[C@@](OC(C)=O)(C5)C4)cc2)c(=O)c2ccc(Cl)cc2n1-c1ccccc1 [Compound I-6, rel-3-[4-((1S,2S,3R,5S,7S)-5-Acetoxy-adamantan-2-ylcarbamoyl)-benzyl]-7-chloro-4-oxo-1-phenyl-1,4-dihydro-quinoline-2-carboxylic acid methyl ester]	110	4.4
COC(=O)c1c(Cc2ccc(C(=O)N[C@H]3[C@@H]4C[C@@H]5C[C@H]3C[C@@](N)(C5)C4)cc2)c(=O)c2cccnc2n1-c1ccccc1 [Compound I-8, rel-3-[4-((1S,2R,3R,5S,7S)-5-amino-adamantan-2-ylcarbamoyl)-benzyl]-4-oxo-1-phenyl-1,4-dihydro-[1,8]naphthyridine-2-carboxylic acid methyl ester]	–	44
COC(=O)c1c(Cc2ccc(C(=O)N[C@@H]3[C@@H]4C[C@@H]5C[C@H]3C[C@@](N)(C5)C4)cc2)c(=O)c2ccc(Cl)cc2n1-c1ccccc1 [Compound I-9, rel-3-[4-((1S,2S,3R,5S,7S)-5-Amino-adamantan-2-ylcarbamoyl)-benzyl]-7-chloro-4-oxo-1-phenyl-1,4-dihydro-quinoline-2-carboxylic acid methyl ester]	27	3.2
COC(=O)c1c(Cc2ccc(C(=O)N[C@@H]3[C@@H]4C[C@@H]5C[C@H]3C[C@@](NC(C)=O)(C5)C4)cc2)c(=O)c2ccc(Cl)cc2n1-c1ccccc1 [Compound I-10, rel-3-[4-((1S,2S,3R,5S,7S)-5-Acetylamino-adamantan-2-ylcarbamoyl)-benzyl]-7-chloro-4-oxo-1-phenyl-1,4-dihydro-quinoline-2-carboxylic acid methyl ester]	30	3.5
COC(=O)c1c(Cc2ccc(C(=O)N[C@@H]3[C@@H]4C[C@@H]5C[C@H]3C[C@@](NC(=O)C(C)(C)C)(C5)C4)cc2)c(=O)c2ccc(Cl)cc2n1-c1ccccc1 [Compound I-11, rel-7-Chloro-3-{4-[(1S,2S,3R,5S,7S)-5-(2,2-dimethyl-propionylamino)-adamantan-2-ylcarbamoyl]-benzyl}-4-oxo-1-phenyl-1,4-dihydro-quinoline-2-carboxylic acid methyl ester]	62	6.9
COC(=O)c1c(Cc2ccc(C(=O)N[C@@H]3[C@@H]4C[C@@H]5C[C@H]3C[C@@](NC(=O)C(C)(C)OC(C)=O)(C5)C4)cc2)c(=O)c2ccc(Cl)cc2n1-c1ccccc1 [Compound I-12, rel-3-{4-[(1S,2S,3R,5S,7S)-5-(2-Acetoxy-2-methyl-propionylamino)-adamantan-2-ylcarbamoyl]-benzyl}-7-chloro-4-oxo-1-phenyl-1,4-dihydro-quinoline-2-carboxylic acid methyl ester]	17	3.3
COC(=O)c1c(Cc2ccc(C(=O)N[C@@H]3[C@@H]4C[C@@H]5C[C@H]3C[C@@](NC(=O)C(C)(C)O)(C5)C4)cc2)c(=O)c2ccc(Cl)cc2n1-c1ccccc1 [Compound I-13, rel-7-Chloro-3-{4-[(1S,2S,3R,5S,7S)-5-(2-hydroxy-2-methyl-propionylamino)-adamantan-2-ylcarbamoyl]-benzyl}-4-oxo-1-phenyl-1,4-dihydro-quinoline-2-carboxylic acid methyl ester]	42	1.9
COC(=O)c1c(Cc2ccc(C(=O)N[C@@H]3[C@@H]4C[C@@H]5C[C@H]3C[C@@](NS(=O)(=O)C3CC3)(C5)C4)cc2)c(=O)c2ccc(Cl)cc2n1-c1ccccc1 [Compound I-14, rel-7-Chloro-3-[4-((1S,2S,3R,5S,7S)-5-cyclopropanesulfonylamino-adamantan-2-ylcarbamoyl)-benzyl]-4-oxo-1-phenyl-1,4-dihydro-quinoline-2-carboxylic acid methyl ester]	26	3.1
COC(=O)c1c(Cc2ccc(C(=O)N[C@@H]3[C@@H]4C[C@@H]5C[C@H]3C[C@@](NS(C)(=O)=O)(C5)C4)cc2)c(=O)c2ccc(Cl)cc2n1-c1ccccc1 [Compound I-15, rel-7-Chloro-3-[4-((1S,2S,3R,5S,7S)-5-methanesulfonylamino-adamantan-2-ylcarbamoyl)-benzyl]-4-oxo-1-phenyl-1,4-dihydro-quinoline-2-carboxylic acid methyl ester]	57	3.2
COC(=O)c1c(Cc2ccc(C(=O)N[C@@H]3[C@@H]4C[C@@H]5C[C@H]3C[C@@](NCC(C)(C)O)(C5)C4)cc2)c(=O)c2ccc(Cl)cc2n1-c1ccccc1 [Compound I-16, rel-7-Chloro-3-{4-[(1S,2S,3R,5S,7S)-5-(2-hydroxy-2-methyl-propylamino)-adamantan-2-ylcarbamoyl]-benzyl}-4-oxo-1-phenyl-1,4-dihydro-quinoline-2-carboxylic acid methyl ester]	10	1.9
